Data set [1] concerns the target T1, BRD4-1 (Homo sapiens, UniProt O60885).
T1 construct: made in house; host or cells: Escherichia coli
The data set is described as follows: Biochemical HTRF (TR-FRET) assay: BRD4-1 binding to acetylated histone H4 peptide. To be noted: 200 nM H4 peptide, 60 nM BRD4-1, 60 min at 25 °C; geometric mean; read-out: IC50 HTBS BRD4-1 HTRF. The procedure: (§1) Binding of the two tandem bromodomains, BRD4 I and BRD4—2, to an acetylated histone H4 peptide were measured using a homogeneous time resolved fluorescence resonance energy transfer (TR-FRET) assay. The synthetic peptide containing amino acids 1-18 of histone H4 was acetylated at lysine 5, 8, 12, 16 and conjugated to biotin ([…]-GSGSK-biotin) was purchased from Millipore. BRD4_I and BRD4—2 were expressed and purified from Escherichia coli as N-terminal His6-tagged proteins. An XL665 labeled anti-His antibody (Cisbio) was used to specifically bind BRD4 and a cryptate labeled streptavidin protein was used because it specifically recognized the biotinylated H4 peptide. […] Assays were performed in 50 mM Hepes (pH 7.5), 150 mM NaCl, 0.1 mg/ml BSA, 0.01% (v/v) Brij, 0.5% (v/v) DMSO and 200 nM H4 peptide at the following concentrations for each BRD4 isoform: 60 nM BRD4—1 and 120 nM BRD4—2. After an assay reaction time of 60 minutes at 25° C., binding was measured with 2 nM cryptate labeled streptavidin and 10 nM anti-His-XL665 antibody. TR-FRET signal was detected on an Envision plate reader (Ex: 320 nm; Em: 615/665 nm; 100 μs delay and 200 μs read window). Data were normalized based on a positive (2 μM I-BET) and negative (DMSO) controls and IC50 values were calculated from the fit of the dose-response curves to a four-parameter equation. All IC50 values represent geometric mean values of a minimum of four determinations. These assays generally produced results within 3-fold of the reported mean.

The target in data set [2] is T2, BRD4-2 (Homo sapiens, UniProt O60885).
T2 construct: made in house; host or cells: Escherichia coli
Description: Biochemical HTRF (TR-FRET) assay: BRD4-2 binding to acetylated histone H4 peptide. To be noted: 200 nM H4 peptide, 120 nM BRD4-2, 60 min at 25 °C; geometric mean; read-out: IC50 HTBS BRD4-2 HTRF. The procedure:
as §1

The nature of data set [3]: MT-4 proliferation assay in 384-well format (Cell Titer Glo). In kind it is cell-based, human. As to conditions: human, MT-4 cells, Table 1, 50% decrease in luminescence signal, read-out: CC50 MT4 384. How it is done:
(§2) Compounds were tested in a standardized high-throughput 384-well assay format. Each compound was serially diluted 3-fold in 100% DMSO in polypropylene 384-well plates using a Biomek FX Workstation, and 0.4 μL compound added to an assay plate containing 40 μL RPMI media. Compounds were arranged in a horizontal pattern, with 10 concentrations per compound, and 8 compounds added per plate. Due to low DMSO tolerability, the final DMSO concentration never exceeded 0.5% (v/v). Each assay plate contained 10 μM Puromycin and 0.5% DMSO in RPMI-1640 as positive and negative controls respectively. MT-4 cells (HTLV-1 transformed, human T lymphoblastoid cells, NIH Aids Reagent program) were added in volumes of 35 μL per well and 2,000 cells per well using a Biotek uFlow Workstation (Biotek, Winooski, Vt.), and the plates subsequently incubated for 5 days at 37° C. in an incubator set at 5% CO2 and 90% humidity.
(§3) After 5 days, 22 μL Cell Titer Glo (Promega) was added to the assay plates with a Biotek uFlow Workstation. Plates were subsequently placed on a Perkin Elmer Envision Plate Reader for 5 minutes before the luminescence signal was read. CC50 values were calculated from the compound concentration that caused a 50% decrease in luminescence signal, a measure of toxicity, and calculated by non-linear regression using Pipeline Pilot software (Accelrys, San Diego, Calif.).

For data set [4], the target named is T1, BRD4-1. The data set is described as follows: Biochemical ALPHA assay: binding of BRD4_1 to acetylated histone H4 peptide. To be noted: 200 nM H4 peptide, 15 nM BRD4_1, 60 min at 25 °C; geometric mean of min. four determinations. How it is done: Binding of the bromodomain BRD4_I to an acetylated histone H4 peptide was measured using a bead based Amplified Luminescent Proximity Homogeneous Assay (ALPHA). The synthetic peptide containing amino acids 1-18 of histone H4 was acetylated at lysine 5, 8, 12, 16 and conjugated to biotin ([…]-GSGSK-biotin) was purchased from Millipore. BRD4_I was expressed and purified from Escherichia coli as an N-terminal Hiss-tagged protein. Nickel-Chelate ALPHA acceptor beads (Perkin Elmer) were used to specifically bind BRD4—1 and ALPHA streptavidin donor beads (Perkin Elmer) were used because they specifically recognized the biotinylated H4 peptide. […] Assays were performed in 50 mM Hepes (pH 7.5), 150 mM NaCl, 0.1 mg/ml BSA, 0.01% (v/v) Brij, 0.5% (v/v) DMSO, 200 nM H4 peptide and 15 nM of BRD4—1 protein. After an assay reaction time of 60 minutes at 25° C., binding was measured with 20 µg/ml streptavidin donor beads and 20 μg/ml nickel-chelate acceptor beads. ALPHA signal was detected on an Envision plate reader ([…]; Em: 570 nm; Ex time: 180 ms). Data were normalized based on a positive (2 μM I-BET) and negative (DMSO) controls and IC50 values were calculated from the fit of the dose-response curves to a four-parameter equation. All IC50 values represent geometric mean values of a minimum of four determinations. These assays generally produced results within 3-fold of the reported mean.

In data set [5] the test system is MT-4 cells. Description: MT-4 proliferation assay in 384-well format (Cell Titer Glo). It counts as cell-based, human. As to conditions: Table 1, 5 days, 50% decrease in luminescence signal, read-out: CC50 MT4 384. The procedure: as §2, §3

Regarding `Cc1ccc2ncccc2c1-c1cc(-c2c(C)noc2C)cc2[nH]c(=O)[nH]c12` (racemic) [Example 2, 6-(3,5-dimethylisoxazol-4-yl)-4-(6-methylquinolin-5-yl)-1H-benzo[d]imidazol-2(3H)-one], the figures for the IC50 in data set [1], in data set [2] and in data set [4] were 135 nM, 119 nM and 30.8 nM, respectively. Besides, in data set [3], the CC50 at 5 days stood at 19 nM.
For the molecule `Cc1ccc2ncccc2c1-c1cc(-c2c(C)noc2C)cc2[nH]c(=O)[nH]c12` (single isomer, unassigned) [Example 13], in data set [5], the CC50 was found to be 51.6 nM. Besides, the concentration for half-maximal inhibition (IC50) in data set [4] is 45.2 nM.
The matching figures for `Cc1ccc2ncccc2c1-c1cc(-c2c(C)noc2C)cc2[nH]c(=O)[nH]c12` (single isomer, unassigned) [Example 14]: 9.54 nM and 14 nM.
Take `Cc1noc(C)c1-c1cc(-c2cccnc2-c2ccccc2)c2[nH]c(=O)[nH]c2c1` [Example 4, 6-(3,5-dimethylisoxazol-4-yl)-4-(2-phenylpyridin-3-yl)-1H-benzo[d]imidazol-2(3H)-one]: the IC50 in data set [1] is 119 nM; in data set [2], 141 nM; in data set [4] it was 37.2 nM. For the same molecule, the CC50 at 5 days in data set [3] came out at 103 nM.
Taken in the same sequence, the figures for `Cc1cnn(C)c1-c1cc(-c2c(C)noc2C)cc2[nH]c(=O)[nH]c12` [Example 5] were 350 nM, 144 nM, 234 nM and 233 nM.
Taken in the same sequence, the figures for `Cc1noc(C)c1-c1cc(-c2cccc3c2CCC(=O)N3C)c2[nH]c(=O)[nH]c2c1` [Example 6, 5-(6-(3,5-dimethylisoxazol-4-yl)-2-oxo-2,3-dihydro-1H-benzo[d]imidazol-4-yl)-1-methyl-3,4-dihydroquinolin-2(1H)-one] were 132 nM, 108 nM, 46.8 nM and 53.9 nM.
The matching figures for `Cc1ccc2ncccc2c1-c1cc(-c2c(C)noc2C)cc2[nH]c(=O)n(C)c12` [Example 7, 5-(3,5-dimethylisoxazol-4-yl)-1-methyl-7-(6-methylquinolin-5-yl)-1H-benzo[d]imidazol-2(3H)-one]: 121 nM, 101 nM, 37.3 nM and 17.5 nM.
Consider `Cc1cnn(C)c1-c1cc(-c2c(C)noc2C)cc2[nH]c(=O)n(C)c12` [Example 8, 7-(1,4-dimethyl-1H-pyrazol-5-yl)-5-(3,5-dimethylisoxazol-4-yl)-1-methyl-1H-benzo[d]imidazol-2(3H)-one], for which the IC50 in data set [1] turned out to be 511 nM; in data set [2], 168 nM; in data set [4], 241 nM. In data set [3], the cytotoxic concentration (CC50) at 5 days amounted to 117 nM.
`Cc1noc(C)c1-c1cc(-c2c(C)noc2C)c2c(c1)[nH]c(=O)n2C` [Example 9]: the IC50 in data set [1] was 497 nM; in data set [2], 227 nM; in data set [4], 270 nM. The CC50 at 5 days in data set [3] stood at 204 nM.
Taken in the same sequence, the figures for `Cc1noc(C)c1-c1cc(-c2c(C)noc2C)c2oc(=O)[nH]c2c1` [Example 10, 5,7-bis(3,5-dimethylisoxazol-4-yl)benzo[d]oxazol-2(3H)-one] were 313 nM, 396 nM, 196 nM and 1030 nM.
The matching figures for `Cc1ccc2ncccc2c1-c1cc(-c2c(C)noc2C)cc2[nH]c(=O)oc12` [Example 11, 5-(3,5-dimethylisoxazol-4-yl)-7-(6-methylquinolin-5-yl)benzo[d]oxazol-2(3H)-one]: 438 nM, 174 nM, 222 nM and 421 nM.
Taken in the same sequence, the figures for `Cc1noc(C)c1-c1cc(-c2cccnc2-c2ccccc2)c2oc(=O)[nH]c2c1` [Example 12, 5-(3,5-dimethylisoxazol-4-yl)-7-(2-phenylpyridin-3-yl)benzo[d]oxazol-2(3H)-one] were 316 nM, 314 nM, 233 nM and 761 nM.

The values above are taken from patent US20160031868A1, “BENZIMIDAZOLONE DERIVATIVES AS BROMODOMAIN INHIBITORS” (GILEAD SCIENCES, INC., priority 2013, published 2016).
